From patent US9765034B2, “5-halogenopyrazole biphenylcarboxamides” (BAYER CROPSCIENCE AG, priority 2012, dated 2017) come the findings set out here.

One data set has as its system Botrytis cinerea. The data set can be described thus: In vivo preventive test on Botrytis cinerea (grey mould). To be noted: gherkin plants, preventive spray, 500 ppm, grading 4 to 5 days after contamination. The gist of the method: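 Sprayed gherkin plants (“Vert petit de Paris”) at Z11 cotyledon stage, grown at 24° C, inoculated 24 h later with Botrytis cinerea spores (50 000 spores per ml) in nutrient solution. Efficacy graded 4 to 5 days post-inoculation as % versus solvent-treated controls.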

The next data set has as its system Pyrenophora teres. As to the kind of experiment: In vivo preventive test on Pyrenophora teres (net blotch on barley). Conditions: barley plants, preventive spray, 500 ppm, grading 14 days after contamination. The gist of the method: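 Barley (Plaisant) at the 1-leaf stage was sprayed with compound, then inoculated 24 h later with P. teres spores (12 000 spores per ml). Solvent-only plants served as controls. Efficacy (%) versus controls was graded 14 days after contamination.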

The test system of another data set is Pyricularia oryzae. The data set is classed as in vivo. Conditions: rice plants, preventive spray, 500 ppm, grading 6 days after contamination.
The test system of the next data set is Puccinia recondita. As to the kind of experiment: In vivo preventive test on Puccinia recondita (brown rust on wheat). To be noted: wheat plants, preventive spray, 500 ppm, grading 12 days after contamination. The gist of the method: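 Wheat (Scipion) at the 1-leaf stage, grown at 22 °C, was sprayed preventively with compound; solvent-treated plants served as controls. After 24 h, leaves were inoculated with Puccinia spores (100 000/ml). Percent efficacy versus controls was graded 12 days post-inoculation.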

For another data set, the system named is Sphaerotheca fuliginea. As to the kind of experiment: In vivo preventive test on Sphaerotheca fuliginea (powdery mildew on cucurbits). Conditions: gherkin plants, preventive spray, 500 ppm, grading 12 days after contamination. The gist of the method:
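Gherkin plants grown at 24 °C sprayed with compound at the Z11 cotyledon stage, then inoculated 24 h later with Sphaerotheca fuliginea spores (100 000 spores per ml). Percent efficacy graded 12 days post-inoculation against solvent-treated controls; tested dose 500 ppm.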

Another data set has as its system Uromyces appendiculatus. The data set can be described thus: In vivo preventive test on Uromyces appendiculatus (bean rust). Conditions: bean plants, preventive spray, 500 ppm, grading 11 days after contamination. In short, it runs like this: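 Saxa bean plants grown at 24° C were sprayed at the 2-leaf stage, then inoculated 24 h later with U. appendiculatus spores (150 000 spores per ml). Untreated controls got the acetone/tween/DMSO/water mix only. % efficacy was graded 11 days post-inoculation relative to controls, at 500 ppm.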

Data set [1] relates to Blumeria graminis fsp. hordei. The data set can be described thus: In vivo Blumeria test (barley)/preventive. Conditions: preventive, 500 ppm of active ingredient, evaluated 7 days after inoculation. The protocol: (§1) Example: In Vivo Blumeria Test (Barley)/Preventive Solvent: 49 parts by weight of N,N-dimethylacetamide Emulsifier: 1 part by weight of alkylaryl polyglycol ether To produce a suitable preparation of active compound, 1 part by weight of active compound or active compound combination is mixed with the stated amounts of solvent and emulsifier, and the concentrate is diluted with water to the desired concentration. To test for preventive activity, young plants are sprayed with the preparation of active compound or active compound combination at the stated rate of application. After the spray coating has been dried, the plants are dusted with spores of Blumeria graminis fsp. hordei.

The test system of the next data set is Leptosphaeria nodorum. The data set can be described thus: In vivo Leptosphaeria nodorum test (wheat)/preventive. Conditions: preventive, 500 ppm of active ingredient, evaluated 8 days after inoculation. The protocol:
as §1, with “Leptosphaeria nodorum” for “Blumeria”, “(Wheat)/Preventive” for “(Barley)/Preventive”, “sprayed” for “dusted”, “a spore suspension” for “spores”, “Leptosphaeria nodorum.” for “Blumeria graminis fsp. hordei.”

Data set [2] can be described thus: logP by HPLC on reversed phase columns (EEC directive 79/831 Annex V.A8). Conditions: method [a]: LC-MS at pH 2.7, 0.1% formic acid in water / acetonitrile gradient 10% to 95%.

On to `CCON=Cc1ccc(-c2ccccc2NC(=O)c2c(C(F)F)nn(C)c2F)cc1` [Example 7], for which the Eff. % in the data set on Botrytis cinerea turned out to be 85%; in the data set with Pyrenophora teres, 100%; with Pyricularia oryzae, 90%; in the data set with Puccinia recondita, 94%; with Sphaerotheca fuliginea it was 100%; in the data set with Uromyces appendiculatus, 100%. For the same compound, the Eff. % in data set [1] was 100%; in the data set on Leptosphaeria nodorum it was 90%. Besides, in [2], the logP was 3.87[a].
